Marks after values point to notes of the source that are not given here.
How the values were obtained:
[1] = target: NET (Homo sapiens, UniProt P23975); assay: fluorescence-based norepinephrine uptake assay (Tsuruda et al. 2010); assay type: cell-based; conditions: norepinephrine reuptake inhibition, fluorescence-based assay (data indicated by an asterisk); for IC50: read-out: NET pIC50 (converted)
[2] = target: SERT (Homo sapiens, UniProt P31645); assay: fluorescence-based serotonin uptake assay (Tsuruda et al. 2010); assay type: cell-based; conditions: serotonin reuptake inhibition, fluorescence-based assay (data indicated by an asterisk); for IC50: read-out: SERT pIC50 (converted)
Sequence of SERT (P31645 whole entry, species assumed): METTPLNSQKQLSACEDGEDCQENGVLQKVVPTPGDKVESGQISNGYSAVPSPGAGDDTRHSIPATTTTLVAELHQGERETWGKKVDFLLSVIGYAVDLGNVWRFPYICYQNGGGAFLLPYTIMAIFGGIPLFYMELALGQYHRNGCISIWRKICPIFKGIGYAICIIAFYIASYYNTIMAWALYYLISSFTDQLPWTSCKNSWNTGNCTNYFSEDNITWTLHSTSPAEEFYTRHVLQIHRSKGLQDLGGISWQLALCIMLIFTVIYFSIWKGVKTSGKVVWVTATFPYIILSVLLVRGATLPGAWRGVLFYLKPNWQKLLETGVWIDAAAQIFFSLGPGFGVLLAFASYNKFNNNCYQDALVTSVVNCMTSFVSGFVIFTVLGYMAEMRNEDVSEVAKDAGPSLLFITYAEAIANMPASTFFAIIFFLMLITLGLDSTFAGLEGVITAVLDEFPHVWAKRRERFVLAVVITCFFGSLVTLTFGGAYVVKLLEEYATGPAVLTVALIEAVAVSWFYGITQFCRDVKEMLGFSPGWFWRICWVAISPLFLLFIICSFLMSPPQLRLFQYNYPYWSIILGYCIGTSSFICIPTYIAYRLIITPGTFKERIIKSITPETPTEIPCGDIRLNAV

Sequence of NET (P23975 whole entry): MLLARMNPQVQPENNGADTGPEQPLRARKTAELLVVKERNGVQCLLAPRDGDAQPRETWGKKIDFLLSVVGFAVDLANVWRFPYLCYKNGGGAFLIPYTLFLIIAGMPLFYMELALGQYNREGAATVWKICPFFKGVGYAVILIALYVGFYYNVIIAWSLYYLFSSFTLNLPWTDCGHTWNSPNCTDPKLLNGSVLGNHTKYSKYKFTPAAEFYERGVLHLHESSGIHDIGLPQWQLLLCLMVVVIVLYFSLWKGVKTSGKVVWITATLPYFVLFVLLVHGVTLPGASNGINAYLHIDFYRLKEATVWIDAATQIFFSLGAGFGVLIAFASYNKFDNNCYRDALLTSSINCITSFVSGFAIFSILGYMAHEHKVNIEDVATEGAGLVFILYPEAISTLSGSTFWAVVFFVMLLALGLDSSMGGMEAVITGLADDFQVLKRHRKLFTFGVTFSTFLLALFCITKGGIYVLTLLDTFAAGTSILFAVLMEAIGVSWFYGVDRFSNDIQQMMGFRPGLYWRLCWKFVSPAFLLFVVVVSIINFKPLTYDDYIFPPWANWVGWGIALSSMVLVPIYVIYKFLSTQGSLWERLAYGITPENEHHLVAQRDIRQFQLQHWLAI

Row | SMILES | IC50 [1] [nM] | IC50 [2] [nM] | NET pIC50 [1] | SERT pIC50 [2]
1 | CC(C)OC[C@@H](Oc1cccc(F)c1Cl)[C@H]1CCNC1 [Example 9-11, (S)-3-[(S)-1-(2-Chloro-3-fluorophenoxy)-2-isopropoxyethyl]pyrrolidine] | ≤ 10 | ≤ 10 | – | –
2 | Cc1c(Cl)cccc1O[C@H](COC(C)C)[C@H]1CCNC1 [Example 9-15, (S)-3-[(S)-1-(3-Chloro-2-methylphenoxy)-2-isopropoxyethyl]pyrrolidine] | ≤ 10 | ≤ 10 | – | –
3 | CCOC[C@@H](Oc1ccc(C#N)cc1Cl)[C@@H]1CCNC1 (stereo in doubt) [Example 7-20, 3-Chloro-4-((R)-2-ethoxy-1-(S)-pyrrolidin-3-ylethoxy)benzonitrile] | ≤ 100 | ≤ 10 | – | –
4 | CCSC[C@H](Oc1cccc(F)c1Cl)[C@H]1CCNC1.O=C(O)C(F)(F)F [Example 17-3] | – | – | ≧8.0* | ≧8.0*
5 | CCOC[C@H](Oc1cc(Cl)cc(Cl)c1)[C@H]1CCNC1 [Example 7-27, (S)-3-[(R)-1-(3,5-Dichlorophenoxy)-2-ethoxyethyl]pyrrolidine] | ≤ 10 | ≤ 100 | – | –
6 | CSC[C@H](Oc1cccc(Cl)c1C)[C@H]1CCNC1.O=C(O)C(F)(F)F [Example 15-5] | – | – | ≧8.0* | ≧8.0*
7 | CCSC[C@@H](Oc1cccc(F)c1Cl)[C@H]1CCNC1.O=C(O)C(F)(F)F [Example 17-4] | – | – | ≧8.0* | ≧8.0*
8 | CSC[C@H](Oc1cccc(C(F)(F)F)c1)[C@H]1CCNC1.O=C(O)C(F)(F)F [Example 15-9] | – | – | ≧7.0* | ≧7.0*
9 | CSC[C@@H](Oc1ccc(Cl)cc1Cl)[C@H]1CCNC1.O=C(O)C(F)(F)F [Example 15-12] | – | – | ≧7.0* | ≧8.0*
10 | CSC[C@H](Oc1cccc(F)c1Cl)[C@H]1CCNC1.O=C(O)C(F)(F)F [Example 15-3] | – | – | ≧8.0* | ≧8.0*
11 | Cc1c(Cl)cccc1OC(COCc1ccccc1)C1CCNC1 [Example 10-5, ((S)-3-[(R)-2-Benzyloxy-1-(3-chloro-2-methylphenoxy)ethyl]pyrrolidine] | ≤ 10 | ≤ 10 | – | –
12 | CSC[C@H](Oc1cccc(Cl)c1Cl)[C@H]1CCNC1.O=C(O)C(F)(F)F [Example 15-1] | – | – | ≧8.0* | ≧8.0*
13 | CC(C)OC[C@@H](Oc1cccc(Cl)c1Cl)[C@H]1CCNC1 [Example 9-8, (S)-3-[(S)-1-(2,3-Dichlorophenoxy)-2-isopropoxyethyl]pyrrolidine] | ≤ 10 | ≤ 10 | – | –
14 | CC(C)OC[C@H](Oc1ccc(Cl)cc1Cl)[C@H]1CCNC1 [Example 8, (S)-3-[(R)-1-(2,4-Dichlorophenoxy)-2-isopropoxyethyl]pyrrolidine] | ≤ 10 | ≤ 10 | – | –
15 | CCSC[C@H](Oc1ccc(Cl)c(Cl)c1)[C@H]1CCNC1.O=C(O)C(F)(F)F [Example 17-9] | – | – | ≧8.0* | ≧8.0*
16 | CSC[C@H](Oc1ccc(Cl)cc1Cl)[C@H]1CCNC1.O=C(O)C(F)(F)F [Example 15-11] | – | – | ≧8.0* | ≧8.0*
17 | CC(C)OCC(Oc1cccc(Cl)c1C(F)(F)F)C1CCNC1 [Example 9-20, (S)-3-[(R)-1-(3-Chloro-2-trifluoromethyl-phenoxy)-2-isopropoxycthyl]pyrrolidine] | ≤ 10 | ≤ 100 | – | –
18 | CCSC[C@H](Oc1ccc(C(F)(F)F)cc1)[C@H]1CCNC1.O=C(O)C(F)(F)F [Example 17-11] | – | – | ≧8.0* | ≧8.0*
19 | CSC[C@@H](Oc1ccc(F)c(F)c1F)[C@H]1CCNC1.O=C(O)C(F)(F)F [Example 15-14] | – | – | ≧8.0* | ≧7.0*

More lines, main results first:

Row | IC50 [1] [nM] | IC50 [2] [nM] | SMILES | NET pIC50 [1] | SERT pIC50 [2]
20 | ≤ 10 | ≤ 10 | CCOC[C@H](Oc1cccc(Cl)c1Cl)[C@H]1CCNC1 [Example 7-7, (S)-3-[(R)-1-(2,3-Dichlorophenoxy)-2-ethoxyethyl]pyrrolidine] | – | –
21 | ≤ 10 | ≤ 100 | CCOC[C@H](Oc1ccc(F)cc1Cl)[C@H]1CCNC1 [Example 7-18, (S)-3-[(R)-1-(2-Chloro-4-fluorophenoxy)-2-ethoxyethyl]pyrrolidine] | – | –
22 | ≤ 10 | ≤ 10 | CCOC[C@@H](Oc1cccc(F)c1Cl)[C@H]1CCNC1 [Example 7-10, (S)-3-[(S)-1-(2-Chloro-3-fluorophenoxy)-2-ethoxyethyl]pyrrolidine] | – | –
23 | ≤ 10 | ≤ 10 | CCOC[C@H](Oc1ccc(Cl)c(F)c1)[C@H]1CCNC1 [Example 7-26, (S)-3-[(R)-1-(4-Chloro-3-fluorophenoxy)-2-ethoxyethyl]pyrrolidine] | – | –
24 | ≤ 10 | ≤ 10 | CCOC[C@H](Oc1ccc(Cl)cc1C(F)(F)F)[C@H]1CCNC1 [Example 7-23, (S)-3-[(R)-1-(4-Chloro-2-trifluoromethylphenoxy)-2-ethoxyethyl]pyrrolidine] | – | –
25 | ≤ 100 | ≤ 10 | CCOC[C@@H](Oc1cccc(Cl)c1C(F)(F)F)[C@H]1CCNC1 [Example 7-16, (S)-3-[(S)-1-(3-Chloro-2-trifluoromethylphenoxy)-2-ethoxyethyl]pyrrolidine] | – | –
26 | ≤ 10 | ≤ 10 | CCOC[C@H](Oc1ccc(Cl)cc1)[C@H]1CCNC1 [Example 7-4, (S)-3-[(R)-1-(4-Chlorophenoxy)-2-ethoxyethyl]pyrrolidine] | – | –
27 | ≤ 100 | ≤ 100 | CCOC[C@H](Oc1cccc(C(F)(F)F)c1)[C@H]1CCNC1 [Example 7-2, (S)-3-[(R)-2-Ethoxy-1-(3-trifluoromethylphenoxy)ethyl]pyrrolidine] | – | –
28 | ≤ 100 | ≤ 100 | CCOC[C@H](Oc1cccc(C(F)(F)F)c1F)[C@H]1CCNC1 [Example 7-12, (S)-3-[(R)-2-Ethoxy-1-(2-fluoro-3-trifluoromethylphenoxy)ethyl]pyrrolidine] | – | –

Source: patent US8455665B2, “3-phenoxymethylpyrrolidine compounds” (Theravance, Inc., priority 2009, dated 2013)
